The source of these data is patent US20260325540A1 (priority 2023, published 2026).

This assay addresses HCoV-229E 3CL protease (Human coronavirus 229E, UniProt P0C6U2). The experiment in a line: FRET based protease assay, HCoV-229E 3CL. It is filed as biochemical. The conditions noted are these: 229E IC50, 6 nM H229E-CoV Chis-3CLpro, 6 μM peptide 1 substrate, 25° C., 1.5 hrs, pH 7.5.

Chain of HCoV-229E 3CL protease (P0C6U2 2966-3267): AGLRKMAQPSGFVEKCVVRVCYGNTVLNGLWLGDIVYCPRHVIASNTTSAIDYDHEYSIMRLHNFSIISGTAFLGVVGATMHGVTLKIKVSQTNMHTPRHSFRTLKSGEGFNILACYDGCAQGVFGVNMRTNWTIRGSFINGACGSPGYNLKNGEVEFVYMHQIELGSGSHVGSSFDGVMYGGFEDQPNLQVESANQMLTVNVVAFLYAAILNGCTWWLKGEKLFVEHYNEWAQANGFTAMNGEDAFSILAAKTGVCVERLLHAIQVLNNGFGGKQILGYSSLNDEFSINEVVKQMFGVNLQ

Usually IC50 stands for the midpoint of a concentration-inhibition curve. Read a high IC50 as a need for much substance. In the case of `CC(C)C[C@@H]1NC(=O)[C@@H](Cc2ccccc2)CCCCC[C@H]2CNC(=O)[C@H]2C[C@@H](C#N)NC1=O` [Example 50], the 50% inhibitory concentration (IC50) was 1000 to 20000 nM. `CC(C)C[C@@H]1NC(=O)CCCCCC[C@@H]2CNCC(=O)[C@H]2C[C@@H](C=O)NC1=O` [Example 51] gave an IC50 of 1000 to 20000 nM. Under `CC(C)C[C@@H]1NC(=O)CCCCCC[C@H]2CNCC(=O)[C@@H]2C[C@@H](C=O)NC1=O` [Example 52] stands 100 to 1000 nM; under `CC(C)(C)C[C@@H]1NC(=O)[C@@H](NC(=O)C(C)(C)C)CCCC[C@H]2CNC(=O)[C@H]2C[C@@H](C#N)NC1=O` [Example 53], < 100 nM; under `CC(C)C[C@@H]1NC(=O)[C@@H](NC(=O)C(C)(C)C)CCCC[C@H]2CNC(=O)[C@@H]2C[C@@H](C#N)NC1=O` [Example 54], 1000 to 20000 nM. Take `CC(C)(C)C(=O)N[C@H]1CCCC[C@H]2CNC(=O)[C@H]2C[C@@H](C#N)NC(=O)[C@@H]2[C@@H]3[C@H](CN2C1=O)C3(C)C` [Example 55]: the IC50 is < 100 nM. With `CC(C)C[C@@H]1NC(=O)[C@@H](NC(=O)OC(C)(C)C)CCCC[C@H]2CNC(=O)[C@H]2C[C@@H](C#N)NC1=O` [Example 56], the concentration for half-maximal inhibition (IC50) was < 100 nM. Turning to `CC(C)C[C@H]1C(=O)N[C@H](C#N)C[C@@H]2C(=O)NC[C@@H]2CCCC[C@H](NC(=O)C(C)(C)C)C(=O)N1C` [Example 57], the IC50 lay within 100 to 1000 nM. As to `CC(C)C[C@@H]1NC(=O)[C@@H](NC(=O)C(C)(C)C)CC/C=C/[C@H]2CNC(=O)[C@H]2C[C@@H](C#N)NC1=O` [Example 58], the IC50 was < 100 nM.

As for `CC(C)C[C@@H]1NC(=O)[C@@H](NC(=O)C(C)(C)C)CC/C=C\[C@H]2CNC(=O)[C@H]2C[C@@H](C#N)NC1=O` [Example 59], the half-inhibitory concentration (IC50) lay within 100 to 1000 nM. Under `CC(C)(C)C[C@@H]1NC(=O)[C@@H](NC(=O)OC(C)(C)C)CCCC[C@H]2CNC(=O)[C@H]2C[C@@H](C#N)NC1=O` [Example 60] stands < 100 nM; under `CC(C)(C)C(=O)N[C@H]1CC/C=C/[C@H]2CNC(=O)[C@H]2C[C@@H](C#N)NC(=O)[C@@H]2[C@@H]3[C@H](CN2C1=O)C3(C)C` [Example 61], < 100 nM.

For the molecule `CC1(C)[C@@H]2[C@H]3C(=O)N[C@H](C#N)C[C@@H]4C(=O)NC[C@@H]4CCCC[C@H](NC(=O)C4CC(F)(F)C4)C(=O)N3C[C@@H]21` [Example 62], the 50% inhibitory concentration (IC50) was < 100 nM.

On to `CC(C)(C)C(=O)N[C@H]1C/C=C/[C@H]2CNC(=O)[C@H]2C[C@@H](C#N)NC(=O)[C@@H]2[C@@H]3[C@H](CN2C1=O)C3(C)C` [Example 63], for which the 50% inhibitory concentration (IC50) was < 100 nM. `CC(C)(C)C(=O)N[C@H]1C/C=C\[C@H]2CNC(=O)[C@H]2C[C@@H](C#N)NC(=O)[C@@H]2[C@@H]3[C@H](CN2C1=O)C3(C)C` [Example 64] gave a half-inhibitory concentration (IC50) of 1000 to 20000 nM.

`CC(C)(C)C(=O)N[C@H]1CCCC[C@H]2CCNC(=O)[C@@H]2C[C@@H](C#N)NC(=O)[C@@H]2[C@@H]3[C@H](CN2C1=O)C3(C)C` [Example 65] yielded a half-maximal inhibitory concentration (IC50) of 1000 to 20000 nM. Take `CC(C)(C)C(=O)N[C@H]1CCC[C@H]2CCNC(=O)[C@@H]2C[C@@H](C#N)NC(=O)[C@@H]2[C@@H]3[C@H](CN2C1=O)C3(C)C` [Example 66]: the IC50 is 100 to 1000 nM. The value for `CC(C)(C)C(=O)N[C@H]1CCCC[C@H]2CNC(=O)[C@@H]2C[C@@H](C#N)NC(=O)[C@@H]2[C@@H]3[C@H](CN2C1=O)C3(C)C` [Example 67] was 100 to 1000 nM; that for `CC1(C)[C@@H]2[C@H]3C(=O)N[C@H](C#N)C[C@@H]4C(=O)NC[C@@H]4CCCC[C@H](NC(=O)C4CCC(F)(F)CC4)C(=O)N3C[C@@H]21` [Example 68] was < 100 nM; that for `CC(C)(C)C(=O)N[C@H]1CCCC[C@H]2CCNC(=O)[C@H]2C[C@@H](C#N)NC(=O)[C@@H]2[C@@H]3[C@H](CN2C1=O)C3(C)C` [Example 69] was < 100 nM. Under `CC(C)(C)C(=O)N[C@H]1CCCC[C@H]2CNC(=O)[C@H]2C[C@@H](C#N)NC(=O)[C@@H]2[C@H]3CCC[C@H]3CN2C1=O` [Example 70] stands < 100 nM. `CC(C)(C)C(=O)N[C@H]1CCCC[C@H]2CNC(=O)[C@H]2C[C@@H](C#N)NC(=O)[C@@H]2CCCCN2C1=O` [Example 71] registered an IC50 of 1000 to 20000 nM. The value for `CC(C)(C)OC(=O)N[C@H]1CCCC[C@H]2CNC(=O)[C@H]2C[C@@H](C#N)NC(=O)[C@@H]2[C@@H]3[C@H](CN2C1=O)C3(C)C` [Example 72] was < 100 nM; that for `CC(C)(C)CC(=O)N[C@H]1CCCC[C@H]2CNC(=O)[C@H]2C[C@@H](C#N)NC(=O)[C@@H]2[C@@H]3[C@H](CN2C1=O)C3(C)C` [Example 73] was < 100 nM. On to `CC(C)(C)C(=O)N[C@H]1CCCC[C@H]2CNC(=O)[C@H]2C[C@@H](C#N)NC(=O)[C@@H]2CCCN2C1=O` [Example 74], for which the IC50 is 1000 to 20000 nM. The value for `CC1(C)[C@@H]2[C@H]3C(=O)N[C@H](C#N)C[C@@H]4C(=O)NC[C@@H]4CCCC[C@H](NC(=O)OC4CCCC4)C(=O)N3C[C@@H]21` [Example 75] was < 100 nM; that for `CC1(C)[C@@H]2[C@H]3C(=O)N[C@H](C#N)C[C@@H]4C(=O)NC[C@@H]4CCCC[C@H](NC(=O)C4CCC4)C(=O)N3C[C@@H]21` [Example 76] was < 100 nM.

In the case of `CC1(C)[C@@H]2[C@H]3C(=O)N[C@H](C#N)C[C@@H]4C(=O)NC[C@@H]4CCCC[C@H](NC(=O)C4CCCCC4)C(=O)N3C[C@@H]21` [Example 77], the IC50 was < 100 nM. `CN1C(=O)[C@@H](NC(=O)C(C)(C)C)CCCC[C@H]2CNC(=O)[C@H]2C[C@@H](C#N)NC(=O)[C@@H]1CC(C)(C)C` [Example 78] yielded a half-maximal inhibitory concentration (IC50) of 100 to 1000 nM.

In the case of `CC(C)(C)OC(=O)N[C@H]1CCCC[C@H]2CNC(=O)[C@H]2C[C@@H](C#N)NC(=O)[C@@H]2[C@H]3CCC[C@H]3CN2C1=O` [Example 79], the IC50 is < 100 nM.

For the molecule `CC(C)(C)C(=O)N[C@H]1CCCC[C@H]2CNC(=O)[C@H]2C[C@@H](C#N)NC(=O)[C@H](C2CCCC2)NC1=O` [Example 80], the IC50 was 100 to 1000 nM. Under `CC1(C)[C@@H]2[C@H]3C(=O)N[C@H](C#N)C[C@@H]4C(=O)NC[C@@H]4CCCC[C@H](NC(=O)C4CC5(CCC5)C4)C(=O)N3C[C@@H]21` (some centres unmarked) [Example 81] stands < 100 nM; under `CC1(C)[C@@H]2[C@H]3C(=O)N[C@H](C#N)C[C@@H]4C(=O)NC[C@@H]4CCCC[C@H](NC(=O)c4ccc(F)cc4)C(=O)N3C[C@@H]21` [Example 82], < 100 nM; under `CC1(C)[C@@H]2[C@H]3C(=O)N[C@H](C#N)C[C@@H]4C(=O)NC[C@@H]4/C=C/CC[C@H](NC(=O)C4CC(F)(F)C4)C(=O)N3C[C@@H]21` [Example 83], < 100 nM. For `N#C[C@@H]1C[C@@H]2C(=O)NC[C@@H]2CCCC[C@H](NC(=O)C2CC(F)(F)C2)C(=O)N2C[C@@H]3CCC[C@@H]3[C@H]2C(=O)N1` [Example 84], the IC50 is < 100 nM. Under `CC1(C)[C@@H]2[C@H]3C(=O)N[C@H](C#N)C[C@@H]4C(=O)NC[C@@H]4CCCC[C@H](NC(=O)C4CCOCC4)C(=O)N3C[C@@H]21` [Example 85] stands < 100 nM; under `CC(C)(C)C(=O)N[C@H]1CC/C=C/[C@H]2CNC(=O)[C@H]2C[C@@H](C#N)NC(=O)[C@@H]2[C@H]3CCC[C@H]3CN2C1=O` [Example 86], < 100 nM.

With `CC1(C)[C@@H]2[C@H]3C(=O)N[C@H](C#N)C[C@@H]4C(=O)NC[C@@H]4CCCC[C@H](NC(=O)C(F)(F)F)C(=O)N3C[C@@H]21` [Example 87], the IC50 was < 100 nM.
